Assay results published in PubChem BioAssay (NCI).
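These data come from cells grown in 96-well plates and exposed to compound for 48 hours at five concentrations. GI50: concentration for 50% inhibition of growth. TGI is the concentration that stops growth completely.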

Legend:
Test in all cases: NCI anticancer screen, dose series, 48 h
U251 CNS = system: U251 CNS
ACHN renal = system: ACHN renal
MCF7 breast = system: MCF7 breast
SN12C renal = system: SN12C renal
TK-10 renal = system: TK-10 renal
HS 578T breast = system: HS 578T breast
K-562 leukemia = system: K-562 leukemia
HCC-2998 colon = system: HCC-2998 colon
NCI-H226 lung = system: NCI-H226 lung
A498 renal = system: A498 renal
T-47D breast = system: T-47D breast
MDA-MB-231 breast = system: MDA-MB-231 breast
SK-OV-3 ovarian = system: SK-OV-3 ovarian
SNB-75 CNS = system: SNB-75 CNS
OVCAR-3 ovarian = system: OVCAR-3 ovarian
NCI-H460 lung = system: NCI-H460 lung
SK-MEL-5 melanoma = system: SK-MEL-5 melanoma
SF-539 CNS = system: SF-539 CNS
MALME-3M melanoma = system: MALME-3M melanoma
HCT-15 colon = system: HCT-15 colon
NCI/ADR-RES ovarian = system: NCI/ADR-RES ovarian
OVCAR-4 ovarian = system: OVCAR-4 ovarian
COLO 205 colon = system: COLO 205 colon
CAKI-1 renal = system: CAKI-1 renal
RXF 393 renal = system: RXF 393 renal
HT29 colon = system: HT29 colon
HL-60(TB) leukemia = system: HL-60(TB) leukemia
SNB-19 CNS = system: SNB-19 CNS
A549 NSCLC = system: A549 NSCLC
SF-268 CNS = system: SF-268 CNS
HOP-92 NSCLC = system: HOP-92 NSCLC
RPMI-8226 leukemia = system: RPMI-8226 leukemia
BT-549 breast = system: BT-549 breast
KM12 colon = system: KM12 colon
HCT-116 colon = system: HCT-116 colon
SF-295 CNS = system: SF-295 CNS
PC-3 prostate = system: PC-3 prostate
SR leukemia = system: SR leukemia
SW-620 colon = system: SW-620 colon
HOP-62 NSCLC = system: HOP-62 NSCLC
UACC-62 melanoma = system: UACC-62 melanoma
OVCAR-8 ovarian = system: OVCAR-8 ovarian
EKVX NSCLC = system: EKVX NSCLC
UO-31 renal = system: UO-31 renal
SK-MEL-2 melanoma = system: SK-MEL-2 melanoma
MDA-MB-435 = system: MDA-MB-435
NCI-H522 lung = system: NCI-H522 lung
786-0 renal = system: 786-0 renal
LOX IMVI melanoma = system: LOX IMVI melanoma
OVCAR-5 ovarian = system: OVCAR-5 ovarian
NCI-H23 lung = system: NCI-H23 lung
MOLT-4 leukemia = system: MOLT-4 leukemia
DU-145 prostate = system: DU-145 prostate
UACC-257 melanoma = system: UACC-257 melanoma
M14 melanoma = system: M14 melanoma
IGROV1 ovarian = system: IGROV1 ovarian
SK-MEL-28 melanoma = system: SK-MEL-28 melanoma
CCRF-CEM leukemia = system: CCRF-CEM leukemia

`O=C1CN=C(c2ccc[nH]2)c2cc(Cl)ccc2N1` was tested, and the GI50 (U251 CNS) was 71.8 µM, the TGI (U251 CNS) was greater than 100 µM and the GI50 (ACHN renal) was greater than 100 µM. For the same compound, the TGI (ACHN renal) was greater than 100 µM, the GI50 (MCF7 breast) was greater than 100 µM and the TGI (MCF7 breast) was greater than 100 µM. The GI50 (SN12C renal) was greater than 100 µM, the TGI (SN12C renal) was greater than 100 µM and the GI50 (TK-10 renal) was greater than 100 µM. The TGI (TK-10 renal) was greater than 100 µM, the GI50 (HS 578T breast) was greater than 100 µM and the TGI (HS 578T breast) was greater than 100 µM. The GI50 (K-562 leukemia) was 54 µM, the TGI (K-562 leukemia) was greater than 100 µM and the GI50 (HCC-2998 colon) was greater than 100 µM. For the same compound, the TGI (HCC-2998 colon) was greater than 100 µM, the GI50 (NCI-H226 lung) was greater than 100 µM and the TGI (NCI-H226 lung) was greater than 100 µM. It also gave a GI50 (A498 renal) greater than 100 µM, a TGI (A498 renal) greater than 100 µM and a GI50 (T-47D breast) greater than 100 µM. The TGI (T-47D breast) was greater than 100 µM, the GI50 (MDA-MB-231 breast) was greater than 100 µM and the TGI (MDA-MB-231 breast) was greater than 100 µM. The GI50 (SK-OV-3 ovarian) was greater than 100 µM, the TGI (SK-OV-3 ovarian) was greater than 100 µM and the GI50 (SNB-75 CNS) was greater than 100 µM. The TGI (SNB-75 CNS) was greater than 100 µM, the GI50 (OVCAR-3 ovarian) was greater than 100 µM and the TGI (OVCAR-3 ovarian) was greater than 100 µM. The GI50 (NCI-H460 lung) was 4.38 µM, the TGI (NCI-H460 lung) was greater than 100 µM and the GI50 (SK-MEL-5 melanoma) was greater than 100 µM. It also gave a TGI (SK-MEL-5 melanoma) greater than 100 µM, a GI50 (SF-539 CNS) greater than 100 µM and a TGI (SF-539 CNS) greater than 100 µM. The GI50 (MALME-3M melanoma) was greater than 100 µM, the TGI (MALME-3M melanoma) was greater than 100 µM and the GI50 (HCT-15 colon) was 19.1 µM. For the same compound, the TGI (HCT-15 colon) was greater than 100 µM, the GI50 (NCI/ADR-RES ovarian) was 57.4 µM and the TGI (NCI/ADR-RES ovarian) was greater than 100 µM. It also gave a GI50 (OVCAR-4 ovarian) greater than 100 µM, a TGI (OVCAR-4 ovarian) greater than 100 µM and a GI50 (COLO 205 colon) greater than 100 µM. It also gave a TGI (COLO 205 colon) greater than 100 µM, a GI50 (CAKI-1 renal) greater than 100 µM and a TGI (CAKI-1 renal) greater than 100 µM. The GI50 (RXF 393 renal) was greater than 100 µM, the TGI (RXF 393 renal) was greater than 100 µM and the GI50 (HT29 colon) was 38.9 µM. It also gave a TGI (HT29 colon) greater than 100 µM, a GI50 (HL-60(TB) leukemia) of 4.16 µM and a TGI (HL-60(TB) leukemia) greater than 100 µM. The GI50 (SNB-19 CNS) was greater than 100 µM, the TGI (SNB-19 CNS) was greater than 100 µM and the GI50 (A549 NSCLC) was greater than 100 µM. For the same compound, the TGI (A549 NSCLC) was greater than 100 µM, the GI50 (SF-268 CNS) was greater than 100 µM and the TGI (SF-268 CNS) was greater than 100 µM. It also gave a GI50 (HOP-92 NSCLC) of 12.2 µM, a TGI (HOP-92 NSCLC) greater than 100 µM and a GI50 (RPMI-8226 leukemia) of 3.83 µM. For the same compound, the TGI (RPMI-8226 leukemia) was greater than 100 µM, the GI50 (BT-549 breast) was 53.3 µM and the TGI (BT-549 breast) was greater than 100 µM. It also gave a GI50 (KM12 colon) greater than 100 µM, a TGI (KM12 colon) greater than 100 µM and a GI50 (HCT-116 colon) of 13 µM. For the same compound, the TGI (HCT-116 colon) was greater than 100 µM, the GI50 (SF-295 CNS) was greater than 100 µM and the TGI (SF-295 CNS) was greater than 100 µM. The GI50 (PC-3 prostate) was 93.4 µM, the TGI (PC-3 prostate) was greater than 100 µM and the GI50 (SR leukemia) was greater than 100 µM. The TGI (SR leukemia) was greater than 100 µM, the GI50 (SW-620 colon) was greater than 100 µM and the TGI (SW-620 colon) was greater than 100 µM. The GI50 (HOP-62 NSCLC) was greater than 100 µM, the TGI (HOP-62 NSCLC) was greater than 100 µM and the GI50 (UACC-62 melanoma) was 95 µM. For the same compound, the TGI (UACC-62 melanoma) was greater than 100 µM, the GI50 (OVCAR-8 ovarian) was greater than 100 µM and the TGI (OVCAR-8 ovarian) was greater than 100 µM. It also gave a GI50 (EKVX NSCLC) greater than 100 µM, a TGI (EKVX NSCLC) greater than 100 µM and a GI50 (UO-31 renal) greater than 100 µM. It also gave a TGI (UO-31 renal) greater than 100 µM, a GI50 (SK-MEL-2 melanoma) greater than 100 µM and a TGI (SK-MEL-2 melanoma) greater than 100 µM. For the same compound, the GI50 (MDA-MB-435) was greater than 100 µM, the TGI (MDA-MB-435) was greater than 100 µM and the GI50 (NCI-H522 lung) was 25.2 µM. The TGI (NCI-H522 lung) was greater than 100 µM, the GI50 (786-0 renal) was greater than 100 µM and the TGI (786-0 renal) was greater than 100 µM. It also gave a GI50 (LOX IMVI melanoma) of 17.9 µM, a TGI (LOX IMVI melanoma) greater than 100 µM and a GI50 (OVCAR-5 ovarian) greater than 100 µM. For the same compound, the TGI (OVCAR-5 ovarian) was greater than 100 µM, the GI50 (NCI-H23 lung) was 18.6 µM and the TGI (NCI-H23 lung) was greater than 100 µM. The GI50 (MOLT-4 leukemia) was greater than 100 µM, the TGI (MOLT-4 leukemia) was greater than 100 µM and the GI50 (DU-145 prostate) was greater than 100 µM. For the same compound, the TGI (DU-145 prostate) was greater than 100 µM, the GI50 (UACC-257 melanoma) was greater than 100 µM and the TGI (UACC-257 melanoma) was greater than 100 µM. For the same compound, the GI50 (M14 melanoma) was greater than 100 µM, the TGI (M14 melanoma) was greater than 100 µM and the GI50 (IGROV1 ovarian) was greater than 100 µM. The TGI (IGROV1 ovarian) was greater than 100 µM, the GI50 (SK-MEL-28 melanoma) was greater than 100 µM and the TGI (SK-MEL-28 melanoma) was greater than 100 µM. For the same compound, the GI50 (CCRF-CEM leukemia) was 30.6 µM and the TGI (CCRF-CEM leukemia) was greater than 100 µM.
